{
  "source": "patent US5976844A",
  "about": "“Riboflavin-production process by means of micro-organisms with modified isocitratlyase activity” (BASF Aktiengesellschaft, priority 1995, dated 1999)",
  "target": "Ashbya gossypii ICL (isocitrate lyase) (Eremothecium gossypii, UniProt O94198)",
  "sequence (O94198 whole entry)": "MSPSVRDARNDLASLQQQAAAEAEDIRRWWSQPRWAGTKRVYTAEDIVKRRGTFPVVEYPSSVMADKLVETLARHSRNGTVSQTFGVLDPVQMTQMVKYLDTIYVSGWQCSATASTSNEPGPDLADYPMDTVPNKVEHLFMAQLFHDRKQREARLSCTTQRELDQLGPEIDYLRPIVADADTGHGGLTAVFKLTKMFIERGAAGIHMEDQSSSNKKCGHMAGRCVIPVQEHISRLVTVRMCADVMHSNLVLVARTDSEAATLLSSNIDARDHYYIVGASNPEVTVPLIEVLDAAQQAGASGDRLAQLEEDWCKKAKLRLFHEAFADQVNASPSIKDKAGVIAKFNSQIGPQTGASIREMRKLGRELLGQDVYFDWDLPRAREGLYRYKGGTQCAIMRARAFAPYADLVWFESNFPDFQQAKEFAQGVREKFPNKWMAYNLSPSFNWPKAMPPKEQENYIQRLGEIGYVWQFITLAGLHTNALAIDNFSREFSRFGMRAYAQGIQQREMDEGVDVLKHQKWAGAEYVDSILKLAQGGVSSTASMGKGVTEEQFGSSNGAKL",
  "assay": "Colorimetric test of purified isocitrate lyase (ICL) activity with inhibitors",
  "type": "biochemical",
  "settings": "for inhibition at 1000 µM: read-out: inhibition of ICL activity",
  "source_text": "In order to identify substances exerting an inhibitory effect on ICL, the Ashbya gossypii ICL was first of all purified. The enzyme was isolated and purified after the fungal mycelium had been grown on vegetable oil. […] Approximately 78% of this activity is recovered in dissolved form in the supernatant after centrifuging at 40,000 g. Subsequent fractionation by means of ammonium sulfate precipitation results in a three-fold enrichment of the enzyme. After gel filtration through a Sephacryl S-300 column, the ICL is bound to the cation exchange material Mono S-Sepharose and eluted with NaCl. The resulting preparation is homogeneous by SDS polyacrylamide gel electrophoresis and has a specific activity of 18.4 U/mg.\nThe purified enzyme can be used to measure the effects of substances on its activity in a […] test (Dixon, H. and Kornberg, H. L. (1959), Biochem. J. 72, 3: Assay methods for key enzymes of the glyoxylate cycle). The effects of the tested substances on the enzyme are summarized and depicted in Table 2 and FIG. 1, respectively. Substances to be investigated included those which, as metabolites in the fungal cell, could have an inhibitory effect on the enzyme.",
  "key": {"[1]": {"settings": "purified enzyme, concentration of 10 mM"}},
  "note": "Read-outs that look alike come from different tables or passages of the source.",
  "data": [
    {"smiles": "C=C(CC(=O)O)C(=O)O", "note": "[itaconate]", "values": [
      {"measurement": "inhibition at 1000 µM", "value": 78, "unit": "%"}
    ]},
    {"smiles": "C=C(OP(=O)(O)O)C(=O)O", "note": "[phosphoenolpyruvate]", "values": [
      {"measurement": "inhibition at 10000 µM", "setting": "[1]", "value": "> 50", "unit": "%"}
    ]},
    {"smiles": "O=C(O)[C@H](O)[C@@H](O)[C@H](O)[C@H](O)COP(=O)(O)O", "note": "[6-P-gluconate]", "values": [
      {"measurement": "inhibition of ICL activity", "setting": "[1]", "value": "greater than 50%"}
    ]},
    {"smiles": "O=C(O)C(=O)O", "note": "[oxalate]", "values": [
      {"measurement": "inhibition at 1000 µM", "setting": "purified enzyme, concentration of 1 mM", "value": 95, "unit": "%"}
    ]}
  ]
}
